Test results reported in patent US20210251963A1, “UREA DERIVATIVES FOR USE IN THE TREATMENT OF SUBJECTS WITH ELEVATED EXPRESSION AND/OR ACTIVITY OF SRPK1” (Scandion Oncology A/S, priority 2018, published 2021).

Experiments:
[1] = system: HT29 SN38 resistant colon cancer cells; test: Cell viability (MTT assay); assay type: cell-based; settings: 72 hours
Method: SN38 was applied to a SN38 sensitive colon cancer cell line (“HT29 parental”) and to a SN38 resistant colon cancer cell line (“HT29 SN38 resistant”).
The Log Concentration (μM) used are—1 for SN38. Data represents cell viability data (MTT assay) and cells were incubated with drugs for 72 hours.
The Log Concentrations (μM) used are—1 for SN38, and 1.5 for both Srpkin340 and Sphinx 31. Data represents cell viability data (MTT assay) and cells were incubated with drugs for 72 hours.

ASK1 = molecular target: T1, ASK1 (Homo sapiens, UniProt Q99683); test: Premier Screen kinase activity screening (33P ATP filter binding); assay type: biochemical; settings: 10 μM SCO-101, mean of assay duplicates, read-out: Kinase activity (percentage of DMSO control)
T1 construct: purchased MRC in Dundee (Premier Screen service)
Outline: (§1)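 Each kinase was incubated with 10 μM compound and 33P-ATP, and incorporated radioactivity was captured on filters as a direct measure of enzyme activity. Mean percentage activity of the duplicates was then calculated against DMSO controls and reported with its standard deviation.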

TBK1 = molecular target: T2, TBK1 (Homo sapiens, UniProt Q9UHD2); test: as above; assay type: biochemical; settings: 10 μM SCO-101, mean of assay duplicates, read-out: Kinase activity (percentage of DMSO control)
T2 construct: purchased MRC in Dundee (Premier Screen service)
Outline: as §1

CLK2 = molecular target: T3, CLK2 (Homo sapiens, UniProt P49760); test: as above; assay type: biochemical; settings: 10 μM SCO-101, mean of assay duplicates, read-out: Kinase activity (percentage of DMSO control)
T3 construct: MRC in Dundee (screening service)
Outline: as §1

DDR2 = molecular target: T4, DDR2 (Homo sapiens, UniProt Q16832); test: as above; assay type: biochemical; settings: 10 μM SCO-101, mean of assay duplicates, read-out: Kinase activity (percentage of DMSO control)
T4 construct: purchased MRC in Dundee (Premier Screen service)
T4 sequence (Q16832 22-855, species assumed): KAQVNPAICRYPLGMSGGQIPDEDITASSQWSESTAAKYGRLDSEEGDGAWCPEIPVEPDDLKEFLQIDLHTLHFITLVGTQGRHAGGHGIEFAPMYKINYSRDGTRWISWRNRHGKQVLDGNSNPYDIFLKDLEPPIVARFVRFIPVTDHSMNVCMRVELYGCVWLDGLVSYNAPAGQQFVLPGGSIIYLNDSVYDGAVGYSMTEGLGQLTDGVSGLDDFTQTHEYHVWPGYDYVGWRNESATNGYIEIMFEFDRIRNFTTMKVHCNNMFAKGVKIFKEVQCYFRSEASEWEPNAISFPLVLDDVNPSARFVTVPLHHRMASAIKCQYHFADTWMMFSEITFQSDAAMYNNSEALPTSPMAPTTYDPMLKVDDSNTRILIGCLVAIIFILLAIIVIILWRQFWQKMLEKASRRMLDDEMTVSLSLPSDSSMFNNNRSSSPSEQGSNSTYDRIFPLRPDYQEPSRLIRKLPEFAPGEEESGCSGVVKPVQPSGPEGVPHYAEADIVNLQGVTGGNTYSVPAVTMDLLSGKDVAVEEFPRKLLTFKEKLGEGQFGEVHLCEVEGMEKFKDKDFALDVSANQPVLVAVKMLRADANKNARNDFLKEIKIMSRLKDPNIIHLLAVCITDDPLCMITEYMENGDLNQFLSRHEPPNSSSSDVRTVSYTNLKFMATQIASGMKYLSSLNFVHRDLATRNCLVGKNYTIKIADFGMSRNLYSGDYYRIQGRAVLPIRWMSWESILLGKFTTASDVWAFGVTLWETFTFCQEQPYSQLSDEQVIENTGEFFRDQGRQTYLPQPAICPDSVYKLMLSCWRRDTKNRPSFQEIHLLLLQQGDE
Outline: as §1

CHK1 = molecular target: T5, CHK1 (Homo sapiens, UniProt O14757); test: as above; assay type: biochemical; settings: 10 μM SCO-101, mean of assay duplicates, read-out: Kinase activity (percentage of DMSO control)
T5 construct: purchased MRC in Dundee (Premier Screen service)
T5 sequence (O14757 whole entry, species assumed): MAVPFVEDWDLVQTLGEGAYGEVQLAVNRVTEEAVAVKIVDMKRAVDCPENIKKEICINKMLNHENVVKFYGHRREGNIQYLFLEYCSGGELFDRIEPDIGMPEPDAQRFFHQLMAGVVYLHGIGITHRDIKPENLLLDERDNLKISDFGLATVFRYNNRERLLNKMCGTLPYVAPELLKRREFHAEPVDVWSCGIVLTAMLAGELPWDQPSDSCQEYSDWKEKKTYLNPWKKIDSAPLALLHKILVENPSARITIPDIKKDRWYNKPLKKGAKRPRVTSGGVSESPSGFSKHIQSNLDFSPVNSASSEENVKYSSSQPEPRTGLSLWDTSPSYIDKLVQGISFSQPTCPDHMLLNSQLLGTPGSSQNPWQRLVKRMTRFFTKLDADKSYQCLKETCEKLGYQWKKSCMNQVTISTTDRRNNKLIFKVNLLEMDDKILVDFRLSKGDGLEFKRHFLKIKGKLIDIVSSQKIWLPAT
Outline: as §1

ABL = molecular target: T6, ABL (Homo sapiens, UniProt P00519); test: as above; assay type: biochemical; settings: 10 μM SCO-101, mean of assay duplicates, read-out: Kinase activity (percentage of DMSO control)
T6 construct: MRC in Dundee (screening service)
Outline: as §1

BRK = molecular target: T7, BRK (Homo sapiens, UniProt Q13882); test: as above; assay type: biochemical; settings: 10 μM SCO-101, mean of assay duplicates, read-out: Kinase activity (percentage of DMSO control)
T7 construct: MRC in Dundee (screening service)
Outline: as §1

PRK2 = PRK2 (Homo sapiens, UniProt Q16513); test: as above; assay type: biochemical; settings: 10 μM SCO-101, mean of assay duplicates, read-out: Kinase activity (percentage of DMSO control)
Outline: as §1

ROCK 2 = molecular target: T8, ROCK 2 (Rattus norvegicus, UniProt Q62868); test: as above; assay type: biochemical; settings: 10 μM SCO-101, mean of assay duplicates, read-out: Kinase activity (percentage of DMSO control)
T8 construct: MRC Dundee (screening service)
Outline: as §1

IKKe = molecular target: T9, IKKe (Homo sapiens, UniProt Q14164); test: as above; assay type: biochemical; settings: 10 μM SCO-101, mean of assay duplicates, read-out: Kinase activity (percentage of DMSO control)
T9 construct: purchased MRC in Dundee (Premier Screen service)
Outline: as §1

IGF-1R = molecular target: T10, IGF-1R (Homo sapiens, UniProt P08069); test: as above; assay type: biochemical; settings: 10 μM SCO-101, mean of assay duplicates, read-out: Kinase activity (percentage of DMSO control)
T10 construct: purchased MRC in Dundee (Premier Screen service)
Outline: as §1

MLK3 = molecular target: T11, MLK3 (Homo sapiens, UniProt Q16584); test: as above; assay type: biochemical; settings: 10 μM SCO-101, mean of assay duplicates, read-out: Kinase activity (percentage of DMSO control)
T11 construct: purchased MRC Dundee, Premier Screen (contract screening service)
T11 sequence (Q16584 whole entry, species assumed): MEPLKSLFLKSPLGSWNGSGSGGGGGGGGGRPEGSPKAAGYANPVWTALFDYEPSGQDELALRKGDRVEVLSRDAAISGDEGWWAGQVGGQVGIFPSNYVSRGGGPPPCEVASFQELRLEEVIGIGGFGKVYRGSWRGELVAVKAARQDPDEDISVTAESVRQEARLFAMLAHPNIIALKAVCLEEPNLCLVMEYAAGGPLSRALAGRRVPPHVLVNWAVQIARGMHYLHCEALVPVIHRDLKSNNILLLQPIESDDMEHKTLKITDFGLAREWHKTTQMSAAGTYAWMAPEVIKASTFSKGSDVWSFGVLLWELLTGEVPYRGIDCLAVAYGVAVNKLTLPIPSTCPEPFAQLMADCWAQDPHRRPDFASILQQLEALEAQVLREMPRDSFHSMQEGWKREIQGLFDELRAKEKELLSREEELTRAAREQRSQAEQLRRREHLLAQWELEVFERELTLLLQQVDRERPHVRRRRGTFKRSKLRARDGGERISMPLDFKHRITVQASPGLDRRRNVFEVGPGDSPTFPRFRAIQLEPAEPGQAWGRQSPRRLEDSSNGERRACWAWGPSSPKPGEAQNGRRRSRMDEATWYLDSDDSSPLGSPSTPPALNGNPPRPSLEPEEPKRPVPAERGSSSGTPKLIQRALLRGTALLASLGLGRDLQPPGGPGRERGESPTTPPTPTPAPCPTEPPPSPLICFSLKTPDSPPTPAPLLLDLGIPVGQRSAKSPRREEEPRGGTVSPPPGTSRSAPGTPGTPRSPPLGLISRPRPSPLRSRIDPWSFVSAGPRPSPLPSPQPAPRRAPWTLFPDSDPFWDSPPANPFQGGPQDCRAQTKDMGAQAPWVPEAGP
Outline: as §1

MST4 = MST4 (Homo sapiens, UniProt Q9P289); test: as above; assay type: biochemical; settings: 10 μM SCO-101, mean of assay duplicates, read-out: Kinase activity (percentage of DMSO control)
Outline: as §1

RSK1 = molecular target: T12, RSK1 (Homo sapiens, UniProt Q15418); test: as above; assay type: biochemical; settings: 10 μM SCO-101, mean of assay duplicates, read-out: Kinase activity (percentage of DMSO control)
T12 construct: MRC Dundee (screening service)
Outline: as §1

EPH-A2 = molecular target: T13, EPH-A2 (Homo sapiens, UniProt P29317); test: as above; assay type: biochemical; settings: 10 μM SCO-101, mean of assay duplicates, read-out: Kinase activity (percentage of DMSO control)
T13 construct: purchased MRC in Dundee (Premier Screen service)
Outline: as §1

CDK9-Cyclin T1 = molecular target: T14, CDK9-Cyclin T1 (Homo sapiens, UniProt P50750); test: as above; assay type: biochemical; settings: 10 μM SCO-101, mean of assay duplicates, read-out: Kinase activity (percentage of DMSO control)
T14 construct: purchased MRC Dundee, Premier Screen (contract screening service)
T14 sequence (P50750 whole entry): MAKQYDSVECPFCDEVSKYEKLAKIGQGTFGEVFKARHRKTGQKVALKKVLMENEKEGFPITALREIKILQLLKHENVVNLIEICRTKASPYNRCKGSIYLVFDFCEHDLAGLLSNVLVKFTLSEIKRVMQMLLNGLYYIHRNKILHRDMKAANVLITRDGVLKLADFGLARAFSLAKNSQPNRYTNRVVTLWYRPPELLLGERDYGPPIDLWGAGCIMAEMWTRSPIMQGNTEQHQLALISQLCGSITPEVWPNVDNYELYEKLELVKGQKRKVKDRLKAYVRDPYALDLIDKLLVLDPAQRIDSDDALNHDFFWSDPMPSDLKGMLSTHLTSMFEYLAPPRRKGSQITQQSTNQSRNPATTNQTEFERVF
T14 sequence (O60563 whole entry partner): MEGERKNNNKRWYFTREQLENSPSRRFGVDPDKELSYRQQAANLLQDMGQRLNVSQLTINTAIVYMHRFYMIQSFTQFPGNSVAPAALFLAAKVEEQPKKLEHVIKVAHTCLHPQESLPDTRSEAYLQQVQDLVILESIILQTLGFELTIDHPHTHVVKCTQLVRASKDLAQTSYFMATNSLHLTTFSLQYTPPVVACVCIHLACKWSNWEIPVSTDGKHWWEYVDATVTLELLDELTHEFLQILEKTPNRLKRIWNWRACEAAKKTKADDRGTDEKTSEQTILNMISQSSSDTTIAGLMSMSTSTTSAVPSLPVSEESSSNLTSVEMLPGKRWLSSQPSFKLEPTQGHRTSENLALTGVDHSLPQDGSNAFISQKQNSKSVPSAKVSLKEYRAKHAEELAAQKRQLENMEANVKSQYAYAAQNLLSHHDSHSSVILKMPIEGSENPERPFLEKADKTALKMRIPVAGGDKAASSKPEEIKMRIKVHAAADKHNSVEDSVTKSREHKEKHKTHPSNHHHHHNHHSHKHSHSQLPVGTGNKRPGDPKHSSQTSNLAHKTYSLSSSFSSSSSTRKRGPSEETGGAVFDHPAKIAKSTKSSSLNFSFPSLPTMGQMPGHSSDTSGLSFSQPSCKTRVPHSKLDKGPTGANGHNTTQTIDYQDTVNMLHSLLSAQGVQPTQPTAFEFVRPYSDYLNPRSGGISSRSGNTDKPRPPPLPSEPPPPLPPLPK
Outline: as §1

TAK1 = molecular target: T15, TAK1 (Homo sapiens, UniProt O43318); test: as above; assay type: biochemical; settings: 10 μM SCO-101, mean of assay duplicates, read-out: Kinase activity (percentage of DMSO control)
T15 construct: purchased MRC Dundee, Premier Screen (contract screening service)
Outline: as §1

MARK1 = molecular target: T16, MARK1 (Homo sapiens, UniProt Q9P0L2); test: as above; assay type: biochemical; settings: 10 μM SCO-101, mean of assay duplicates, read-out: Kinase activity (percentage of DMSO control)
T16 construct: purchased MRC in Dundee (Premier Screen service)
Outline: as §1

SIK3 = molecular target: T17, SIK3 (Homo sapiens, UniProt Q9Y2K2); test: as above; assay type: biochemical; settings: 10 μM SCO-101, mean of assay duplicates, read-out: Kinase activity (percentage of DMSO control)
T17 construct: purchased MRC in Dundee (Premier Screen service)
Outline: as §1

EF2K = molecular target: T18, EF2K (Homo sapiens, UniProt O00418); test: as above; assay type: biochemical; settings: 10 μM SCO-101, mean of assay duplicates, read-out: Kinase activity (percentage of DMSO control)
T18 construct: MRC Dundee (screening service)
Outline: as §1

ERK2 = ERK2 (Homo sapiens, UniProt P28482); test: as above; assay type: biochemical; settings: 10 μM SCO-101, mean of assay duplicates, read-out: Kinase activity (percentage of DMSO control)
Outline: as §1

ULK1 = ULK1 (Homo sapiens, UniProt O75385); test: as above; assay type: biochemical; settings: 10 μM SCO-101, mean of assay duplicates, read-out: Kinase activity (percentage of DMSO control)
Outline: as §1

IKKb = molecular target: T19, IKKb (Homo sapiens, UniProt O14920); test: as above; assay type: biochemical; settings: 10 μM SCO-101, mean of assay duplicates, read-out: Kinase activity (percentage of DMSO control)
T19 construct: MRC Dundee (screening service)
Outline: as §1

HER4 = molecular target: T20, HER4 (Homo sapiens, UniProt Q15303); test: as above; assay type: biochemical; settings: 10 μM SCO-101, mean of assay duplicates, read-out: Kinase activity (percentage of DMSO control)
T20 construct: MRC Dundee (screening service)
Outline: as §1

EIF2AK3 = molecular target: T21, EIF2AK3 (Homo sapiens, UniProt Q9NZJ5); test: as above; assay type: biochemical; settings: 10 μM SCO-101, mean of assay duplicates, read-out: Kinase activity (percentage of DMSO control)
T21 construct: MRC Dundee (screening service)
Outline: as §1

ULK2 = molecular target: T22, ULK2 (Homo sapiens, UniProt Q8IYT8); test: as above; assay type: biochemical; settings: 10 μM SCO-101, mean of assay duplicates, read-out: Kinase activity (percentage of DMSO control)
T22 construct: MRC Dundee (screening service)
Outline: as §1

SmMLCK = molecular target: T23, SmMLCK (Homo sapiens, UniProt Q15746); test: as above; assay type: biochemical; settings: 10 μM SCO-101, mean of assay duplicates, read-out: Kinase activity (percentage of DMSO control)
T23 construct: purchased MRC in Dundee (Premier Screen service)
Outline: as §1

MAPKAP-K2 = molecular target: T24, MAPKAP-K2 (Homo sapiens, UniProt P49137); test: as above; assay type: biochemical; settings: 10 μM SCO-101, mean of assay duplicates, read-out: Kinase activity (percentage of DMSO control)
T24 construct: MRC Dundee (screening service)
T24 sequence (P49137 whole entry, species assumed): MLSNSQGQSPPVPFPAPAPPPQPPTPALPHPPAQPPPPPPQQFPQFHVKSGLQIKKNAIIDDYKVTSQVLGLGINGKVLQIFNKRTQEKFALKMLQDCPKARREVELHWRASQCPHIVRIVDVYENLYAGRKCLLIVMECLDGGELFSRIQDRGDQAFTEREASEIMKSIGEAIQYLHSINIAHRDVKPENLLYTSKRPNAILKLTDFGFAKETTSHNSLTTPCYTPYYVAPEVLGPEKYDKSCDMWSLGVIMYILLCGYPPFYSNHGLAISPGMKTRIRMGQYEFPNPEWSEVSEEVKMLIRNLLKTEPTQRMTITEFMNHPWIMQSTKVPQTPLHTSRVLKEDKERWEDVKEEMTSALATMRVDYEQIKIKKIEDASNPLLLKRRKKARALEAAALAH
Outline: as §1

TTBK1 = molecular target: T25, TTBK1 (Homo sapiens, UniProt Q5TCY1); test: as above; assay type: biochemical; settings: 10 μM SCO-101, mean of assay duplicates, read-out: Kinase activity (percentage of DMSO control)
T25 construct: MRC in Dundee (screening service)
T25 sequence (Q5TCY1 whole entry, species assumed): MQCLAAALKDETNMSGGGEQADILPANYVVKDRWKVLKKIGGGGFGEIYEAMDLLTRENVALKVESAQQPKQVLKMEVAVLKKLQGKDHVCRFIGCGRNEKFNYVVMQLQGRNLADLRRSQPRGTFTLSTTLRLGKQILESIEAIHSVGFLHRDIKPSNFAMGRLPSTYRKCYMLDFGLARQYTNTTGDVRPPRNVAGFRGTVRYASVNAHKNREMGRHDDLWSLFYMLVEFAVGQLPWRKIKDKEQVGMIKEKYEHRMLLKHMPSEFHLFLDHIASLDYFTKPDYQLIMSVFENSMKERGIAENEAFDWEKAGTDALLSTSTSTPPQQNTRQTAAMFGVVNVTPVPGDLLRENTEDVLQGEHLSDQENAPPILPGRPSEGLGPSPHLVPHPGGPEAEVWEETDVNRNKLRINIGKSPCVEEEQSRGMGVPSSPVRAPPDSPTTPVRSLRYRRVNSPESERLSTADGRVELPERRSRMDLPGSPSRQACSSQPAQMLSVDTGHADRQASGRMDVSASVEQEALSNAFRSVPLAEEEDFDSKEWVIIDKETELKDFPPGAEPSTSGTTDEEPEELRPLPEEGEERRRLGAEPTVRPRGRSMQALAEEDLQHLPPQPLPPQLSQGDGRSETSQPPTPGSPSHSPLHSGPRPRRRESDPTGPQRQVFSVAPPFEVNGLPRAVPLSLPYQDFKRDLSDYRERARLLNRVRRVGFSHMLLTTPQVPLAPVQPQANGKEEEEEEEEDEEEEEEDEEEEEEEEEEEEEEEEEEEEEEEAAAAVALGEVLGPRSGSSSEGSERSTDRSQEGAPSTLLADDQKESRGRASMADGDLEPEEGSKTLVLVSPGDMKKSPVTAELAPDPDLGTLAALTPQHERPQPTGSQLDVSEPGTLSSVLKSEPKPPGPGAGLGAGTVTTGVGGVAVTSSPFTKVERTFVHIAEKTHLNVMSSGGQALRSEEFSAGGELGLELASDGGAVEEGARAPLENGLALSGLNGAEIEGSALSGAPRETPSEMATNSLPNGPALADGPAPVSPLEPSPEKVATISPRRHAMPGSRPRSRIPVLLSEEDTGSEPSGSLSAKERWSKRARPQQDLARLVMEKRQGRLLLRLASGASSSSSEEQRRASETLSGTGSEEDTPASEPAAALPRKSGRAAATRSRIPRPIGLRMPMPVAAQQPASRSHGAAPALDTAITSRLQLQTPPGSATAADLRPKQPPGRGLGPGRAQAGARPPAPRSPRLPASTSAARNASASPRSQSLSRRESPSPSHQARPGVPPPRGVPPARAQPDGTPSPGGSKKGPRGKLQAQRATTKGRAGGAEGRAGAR
Outline: as §1

PLK1 = molecular target: T26, PLK1 (Homo sapiens, UniProt P53350); test: as above; assay type: biochemical; settings: 10 μM SCO-101, mean of assay duplicates, read-out: Kinase activity (percentage of DMSO control)
T26 construct: purchased MRC in Dundee (Premier Screen service)
Outline: as §1

Structure (SMILES): O=C(Nc1cc(C(F)(F)F)cc(C(F)(F)F)c1)Nc1ccc(Br)cc1-c1nnn[nH]1 [SCO-101]
- viability at 20 µM ([1]; Homo sapiens, HT-29, HT29 SN38 resistant, combination of SN38 0.1 μM and SCO-101 20 μM, read-out: cell viability, % of untreated control cells): 22%
- re-sensitization of SN38 resistant HT29 cells to SN38 ([1]; SCO-101 20 μM with SN38 0.1 μM): re-sensitization
- remaining activity at 10 µM (ASK1): 136%
- remaining activity at 10 µM (TBK1): 126%
- remaining activity at 10 µM (CLK2): 86%
- remaining activity at 10 µM (DDR2): 68%
- remaining activity at 10 µM (CHK1): 195%
- remaining activity at 10 µM (ABL): 85%
- remaining activity at 10 µM (BRK): 94%
- remaining activity at 10 µM (PRK2): 120%
- remaining activity at 10 µM (ROCK 2): 101%
- remaining activity at 10 µM (IKKe): 75%
- remaining activity at 10 µM (IGF-1R): 128%
- remaining activity at 10 µM (MLK3): 110%
- remaining activity at 10 µM (MST4): 117%
- remaining activity at 10 µM (RSK1): 100%
- remaining activity at 10 µM (EPH-A2): 60%
- remaining activity at 10 µM (CDK9-Cyclin T1): 104%
- remaining activity at 10 µM (TAK1): 107%
- remaining activity at 10 µM (MARK1): 74%
- remaining activity at 10 µM (SIK3): 39%
- remaining activity at 10 µM (EF2K): 95%
- remaining activity at 10 µM (ERK2): 119%
- remaining activity at 10 µM (ULK1): 114%
- remaining activity at 10 µM (IKKb): 99%
- remaining activity at 10 µM (HER4): 98%
- remaining activity at 10 µM (EIF2AK3): 103%
- remaining activity at 10 µM (ULK2): 95%
- remaining activity at 10 µM (SmMLCK): 77%
- remaining activity at 10 µM (MAPKAP-K2): 100%
- remaining activity at 10 µM (TTBK1): 94%
- remaining activity at 10 µM (PLK1): 59%
